Test results as given in patent US20220306640A1, “HYDANTOIN DERIVATIVE” (ONO PHARMACEUTICAL CO., LTD., priority 2019, published 2022).
Counter-ions that a name gives are not always drawn.

Columns and labels:
DDR1 = target: T1, DDR1 (Homo sapiens, UniProt Q08345); experiment: Measurement of DDR1 inhibitory activity (LanthaScreen system, in vitro test); format: binding; conditions: GST-DDR1, Kinase tracer 178
T1 construct: purchased Invitrogen
Protocol: Biological Experiment Example 1: Measurement of an DDR1 Inhibitory Activity (In Vitro Test)
An DDR1 enzyme inhibitory activity was measured by using LanthaScreen (registered trademark) system (Invitrogen) based on the attached instruction. The reagents used are shown below.
Assay buffer: 5× Kinase buffer A (Invitrogen) was diluted 5-fold with ddH2O.
1× Kinase Buffer A: 50 mmol/L HEPES pH 7.5, 10 mmol/L MgCl2, 1 mmol/L EGTA, 0.01% Brij-35.
2×DDR1 Solution: a solution containing […] GST-DDR1 (Invitrogen) was prepared by using Assay buffer.
2× Tracer/antibody solution: a solution containing 20 nmol/L Kinase tracer 178 (Invitorgen) and […] Eu-Anti-GST Antibody (Invitorogen) was prepared by using Assay buffer. Test compound solution: a solution containing a test compound of 2-fold concentration with respect to the final concentration was prepared by 50-fold diluting a DMSO solution of test compound of each concentration with the Assay buffer.
• 1 Add 5 μL 2×DDR1 Solution to proxiplate (PerkinElmer) • 2 Add 5 μL test compound solution to proxiplate • 3 Incubate for 15 min at RT • 4 Add 5 μL 2× Tracer/Antibody solution to all well Incubate 1 h at RT • 6 Read LANCE Eu on Envision (PerkinElmer) (Ex: 320 nm/Em 665 nm & 615 nm)
In the low control group, 5 μL Assay buffer was added instead of 5 μL 2×DDR1 Solution and the final 1% DMSO solution was added instead of test compound solution.
In the high control group, the final 1% DMSO solution was added instead of test compound solution.
(§1) The inhibition rate (%) in the test compound group was calculated based on the following mathematical formula.
% inhibition=100−100*(assay value of test compound−A)/(B−A) [Math. 1]
A: average value of low control group B: average value of high control group
Values of 50% inhibition rate (IC50 values) of the test compound were calculated from the inhibition curve based on the inhibition rate of the test compounds in each concentration.

[1] = target: T2, DDR1 phosphorylation in T-47D (ATCC, HTB-133) cells (Homo sapiens, UniProt Q08345); experiment: Measurement of DDR1 phosphorylation suppression rate by using T-47D cells (p-DDR1 ELISA); format: cell-based; conditions: collagen Type I 10 μg/ml, p-DDR1 (panTyr) ELISA
T2 construct: host or cells: T-47D
T2 sequence (Q08345 19-913): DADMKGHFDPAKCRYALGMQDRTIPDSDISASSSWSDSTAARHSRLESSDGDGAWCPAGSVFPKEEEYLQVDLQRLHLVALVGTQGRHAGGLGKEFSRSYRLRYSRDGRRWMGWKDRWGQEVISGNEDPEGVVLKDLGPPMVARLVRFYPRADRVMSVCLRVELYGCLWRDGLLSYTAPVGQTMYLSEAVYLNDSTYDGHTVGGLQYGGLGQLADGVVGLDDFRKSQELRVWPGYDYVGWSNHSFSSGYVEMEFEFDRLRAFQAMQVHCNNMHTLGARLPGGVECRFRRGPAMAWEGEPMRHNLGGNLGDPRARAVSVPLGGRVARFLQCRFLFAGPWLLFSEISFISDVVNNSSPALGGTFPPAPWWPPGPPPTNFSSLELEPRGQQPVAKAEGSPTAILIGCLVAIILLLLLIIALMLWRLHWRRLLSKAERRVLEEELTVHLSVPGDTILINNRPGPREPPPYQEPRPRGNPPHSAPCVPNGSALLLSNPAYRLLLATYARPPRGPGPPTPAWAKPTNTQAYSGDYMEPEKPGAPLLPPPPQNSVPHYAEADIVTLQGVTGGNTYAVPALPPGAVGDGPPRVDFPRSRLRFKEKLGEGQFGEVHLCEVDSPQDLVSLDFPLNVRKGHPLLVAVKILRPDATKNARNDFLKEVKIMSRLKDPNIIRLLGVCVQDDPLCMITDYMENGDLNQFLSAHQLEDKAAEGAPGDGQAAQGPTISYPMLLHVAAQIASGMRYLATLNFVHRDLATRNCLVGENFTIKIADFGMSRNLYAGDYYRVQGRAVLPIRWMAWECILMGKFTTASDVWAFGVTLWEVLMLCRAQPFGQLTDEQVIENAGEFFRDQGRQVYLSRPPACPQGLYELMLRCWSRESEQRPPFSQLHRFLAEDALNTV
Protocol: Biological Example 2: Measurement of DDR1 Phosphorylation Suppression Rate by Using T-47D (ATCC, HTB-133) cells
T-47D cells should be in culture for at least 7 days before using in the assay.
Cell culture medium: RPMI 1640 (HyClone) containing 10% Heat-FBS (HyClone) was prepared.
Assay medium: RPMI 1640 containing 0.1% BSA (solarbio) was prepared.
Collagen Type I (rat tail) solution: Assay medium containing 200 μg/mL Collagen I, rat tail (Gibco) was prepared.
Cell lysis buffer: a solution containing IX cell lysis buffer (CST) and 1× protease and phosphatase inhibitor cocktail (Thermofisher) was prepared by using ddH2O.
• 1. Collect cells into tubes and centrifuge at 1200 rpm for 5 min, at room temperature. Re-suspend the cells in cell culture medium pre-warmed to room temperature. • 2. Count cells and suspend at a density of 2×10^5/ml of cell culture medium. Plate the cells at 100 μL per well (Corning 3599 96-well plate, 2×10^4 cells per well final), mixing the cells well between each draw of the pipettor. • 3. Put lid on cell plate and place into the incubator at 37° C., 5% CO2 • 4. Culture cell overnight
• 1. Remove the plate from the incubator • 2. Cell medium is replaced with the 90 μL Assay medium.
• 1. Compound plates are pre-titrated using DMSO (10-fold dilution for 6 points) • 2. Dilute test compound using assay medium; Transfer 1 μL compound to other 96 well plate and then add 49 μL assay medium to each well (50 fold dilution). • 3. Add 5 μL the diluted test compound solution to the appropriate wells by pipettor. Compound final concentration is start from […] and DMSO final concentration is 0.1 • 4. Tap the plates gently to mix in compound. Reseal the plate with a lid and place in the incubator again, for 24 h.
• 1. Diluted collagen Type I in assay medium to the 200 μg/ml concentration • 2. Using the pipettor adds 5 μL of 200 μg/mL collagen Type I solution to the cell plate (compound well and High control well, collagen final conc. is 10 μg/ml). Add assay medium buffer to the control wells (low control well) • 3. Reseal the plate with a lid and place in the incubator. Incubate 24 h for collagen type I
• 1. After incubation, add 100 µL per well Cell lysis buffer. • 2. Incubate 30 min on ice, then freezing to −80° C. to get the fully cell lysates. • 3. Transfer cell lysates to new plate • 4. Centrifuge for 30 min (×4000 rpm) at 4° C. Then transfer the supernatant to a new plate.
p-DDR1 (panTyr) ELISA kit (CST) was used in the study. The measurement was carried out according to the attached instruction.
as §1
% inhibition=100−100*(assay value of test compound−A)/(B−A) [Math. 2]
A: average value of low control group B: average value of high control group Values of 50% inhibition rate (IC50 values) of the test compound were calculated from the inhibition curve based on the inhibition rate of the test compounds in each concentration.

T1 sequence (Q08345 19-913): as above

Row | Structure (SMILES) | IC50 (DDR1) | IC50 [1]
1 | COc1cc2nccc(Cc3ccc(N4C(=O)CN(c5cccc(C(F)(F)F)c5)C4=O)cc3)c2cc1OC [Example 6(1), 3-{4-[(6,7-dimethoxy-4-quinolinyl)methyl]phenyl}-1-[3-(trifluoromethyl)phenyl]-2,4-imidazolidinedione] | 5 nM | 2 nM
2 | CCc1cc(N2C(=O)CN(c3cc(C(C)(C)C(F)(F)F)on3)C2=O)ccc1Oc1ccnc(N)n1 [Example 3(101), 3-{4-[(2-amino-4-pyrimidinyl)oxy]-3-ethylphenyl}-1-[5-(1,1,1-trifluoro-2-methyl-2-propanyl)-1,2-oxazol-3-yl]-2,4-imidazolidinedione] | 3 nM | 2 nM
3 | O=C1CN(c2cncc(C(F)(F)F)c2)C(=O)N1[C@H]1CC[C@H](Oc2cnc3[nH]nc(OCCO)c3c2)CC1 [Example 36(7), 3-(trans-4-{[3-(2-hydroxyethoxy)-1H-pyrazolo[3,4-b]pyridin-5-yl]oxy}cyclohexyl)-1-[5-(trifluoromethyl)-3-pyridinyl]-2,4-imidazolidinedione] | – | 0.1 nM
4 | COc1ccc2c(CN3CCC(N4C(=O)CN(c5cncc(C(F)(F)F)c5)C4=O)CC3)ccnc2c1 [Example 10, 3-{1-[(7-methoxy-4-quinolinyl)methyl]-4-piperidinyl}-1-[5-(trifluoromethyl)-3-pyridinyl]-2,4-imidazolidinedione] | 60 nM | –
5 | CC(C)c1cc(N2C(=O)CN(c3ccc(CN4CCN(C)CC4)c(C(F)(F)F)c3)C2=O)ccc1Oc1ccnc(N)n1 [Example 3(78), 3-{4-[(2-amino-4-pyrimidinyl)oxy]-3-isopropylphenyl}-1-{4-[(4-methyl-1-piperazinyl)methyl]-3-(trifluoromethyl)phenyl}-2,4-imidazolidinedione] | 4 nM | 2 nM
6 | CS(=O)(=O)c1cc(N2CC(=O)N(c3ccc(Oc4cnc5[nH]ncc5c4)cc3)C2=O)cc(C(F)(F)F)c1 [Example 1(28), 1-[3-(methylsulfonyl)-5-(trifluoromethyl)phenyl]-3-[4-(1H-pyrazolo[3,4-b]pyridin-5-yloxy)phenyl]-2,4-imidazolidinedione] | 2 nM | 2 nM
7 | CCc1cc(N2C(=O)N(c3cncc(C(F)(F)F)c3)CC2O)ccc1Oc1ccnc2[nH]c(=O)cnc12 (centres unmarked) [Example 5(46), 8-(2-ethyl-4-{5-hydroxy-2-oxo-3-[5-(trifluoromethyl)-3-pyridinyl]-1-imidazolidinyl}phenoxy)pyrido[2,3-b]pyrazin-3(4H)-one] | 2 nM | –
8 | CC(c1ccnc2[nH]ccc12)N1CCC(N2C(=O)CN(c3cncc(C(F)(F)F)c3)C2=O)CC1 (centres unmarked) [Example 10(1), 3-{1-[1-(1H-pyrrolo[2,3-b]pyridin-4-yl)ethyl]-4-piperidinyl}-1-[5-(trifluoromethyl)-3-pyridinyl]-2,4-imidazolidinedione] | – | 10 nM
9 | N#Cc1cncc(N2CC(=O)N(C34CCC(Oc5ncnc6[nH]ccc56)(CC3)C4)C2=O)c1 [Example 42(7), 5-{2,4-dioxo-3-[4-(7H-pyrrolo[2,3-d]pyrimidin-4-yloxy)bicyclo[2.2.1]hept-1-yl]-1-imidazolidinyl}nicotinonitrile] | – | 200 nM
10 | C=Cc1cc(N2C(=O)CN(c3cncc(C(F)(F)F)c3)C2=O)ccc1N1CCCc2cnccc21 [Example 8(1), 3-[4-(3,4-dihydro-1,6-naphthyridin-1(2H)-yl)-3-vinylphenyl]-1-[5-(trifluoromethyl)-3-pyridinyl]-2,4-imidazolidinedione] | 80 nM | –
11 | O=C1CN(c2cncc(C(F)(F)F)c2)C(=O)N1c1ccc(N2CCCc3cnccc32)c(Br)c1 [Example 8, 3-[3-bromo-4-(3,4-dihydro-1,6-naphthyridin-1(2H)-yl)phenyl]-1-[5-(trifluoromethyl)-3-pyridinyl]-2,4-imidazolidinedione] | – | 70 nM

Further compounds by falling IC50 [1], results first:

Row | IC50 (DDR1) | IC50 [1] | Structure (SMILES)
12 | 10 nM | 20 nM | COc1cc2nccc(N3CCc4cc(N5C(=O)CN(c6cncc(C(F)(F)F)c6)C5=O)ccc43)c2cc1OC [Example 9(1), 3-[1-(6,7-dimethoxy-4-quinolinyl)-2,3-dihydro-1H-indol-5-yl]-1-[5-(trifluoromethyl)-3-pyridinyl]-2,4-imidazolidinedione]
13 | – | 20 nM | N#Cc1cccc(N2CC(=O)N(C34CCC(Oc5ncnc6[nH]ccc56)(CC3)C4)C2=O)c1 [Example 42(9), 3-{2,4-dioxo-3-[4-(7H-pyrrolo[2,3-d]pyrimidin-4-yloxy)bicyclo[2.2.1]hept-1-yl]-1-imidazolidinyl}benzonitrile]
14 | – | 20 nM | O=C1CN(c2cncc(C(F)(F)F)c2)C(=O)N1C12CCC(Oc3ncnc4[nH]cc(Cl)c34)(CC1)C2 [Example 42(2), 3-{4-[(5-chloro-7H-pyrrolo[2,3-d]pyrimidin-4-yl)oxy]bicyclo[2.2.1]hept-1-yl}-1-[5-(trifluoromethyl)-3-pyridinyl]-2,4-imidazolidinedione]
15 | – | 10 nM | CC(C)(O)c1cc2c(OC34CCC(N5C(=O)CN(c6cncc(C(F)(F)F)c6)C5=O)(CC3)C4)ncnc2[nH]1 [Example 39, 3-(4-{[6-(2-hydroxy-2-propanyl)-7H-pyrrolo[2,3-d]pyrimidin-4-yl]oxy}bicyclo[2.2.1]hept-1-yl)-1-[5-(trifluoromethyl)-3-pyridinyl]-2,4-imidazolidinedione trifluoroacetate (1:1)]
16 | 10 nM | 6 nM | Cn1cc(-c2cc(O[C@H]3C[C@H](N4C(=O)CN(c5cc(CN6CCNCC6)cc(C(F)(F)F)c5)C4=O)C3)ccn2)cn1 [Example 2(126), 3-(trans-3-{[2-(1-methyl-1H-pyrazol-4-yl)-4-pyridinyl]oxy}cyclobutyl)-1-[3-(1-piperazinylmethyl)-5-(trifluoromethyl)phenyl]-2,4-imidazolidinedione]
17 | – | 6 nM | O=C1CN(c2cncc(C(F)(F)F)c2)C(=O)N1C12CCC(Oc3ccnc4[nH]ncc34)(CC1)C2 [Example 43, 3-[4-(1H-pyrazolo[3,4-b]pyridin-4-yloxy)bicyclo[2.2.1]hept-1-yl]-1-[5-(trifluoromethyl)-3-pyridinyl]-2,4-imidazolidinedione]
18 | – | 6 nM | Nc1nccc(Nc2ccc(N3C(=O)CN(c4cccc(OC(F)(F)F)c4)C3=O)cc2Br)c1N [Example 2(163), 3-{3-bromo-4-[(2,3-diamino-4-pyridinyl)amino]phenyl}-1-[3-(trifluoromethoxy)phenyl]-2,4-imidazolidinedione]
19 | 7 nM | 5 nM | CC#Cc1cc(Oc2ccnc(N)n2)ccc1N1C(=O)CN(c2cncc(C(F)(F)F)c2)C1=O [Example 3(120), 3-{4-[(2-amino-4-pyrimidinyl)oxy]-2-(1-propyn-1-yl)phenyl}-1-[5-(trifluoromethyl)-3-pyridinyl]-2,4-imidazolidinedione]
